Measured values: publication PMC4788259 (PLoS Neglected Tropical Diseases, 2016)

Tested on: E. multilocularis metacestodes
Experiment: PGI assay: phosphoglucose isomerase release from damaged metacestodes
Assay type: cell-based, Echinococcus multilocularis
Settings: 10 μM, 5 days, single wells, relative to DB1127 (10 μM)
Method in brief: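 Damage readout: PGI enzyme release after 5-day in vitro culture of 2–4 mm metacestode vesicles (H95 strain, from i.p.-infected BALB/c mice) with compound. Primary screen: 10 μM per single well, 0.1% DMSO negative control. EC50 calculated from PGI release data.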

First: COc1ccc(-n2ccnc2SCC(=O)Nc2cc(C)ccc2C)c(OC)c1 [MMV019258]
Second: COc1ccc(-c2cc3c(SCC(=O)Nc4cc(C(F)(F)F)ccc4Cl)nccn3n2)cc1 [MMV396679]
The “PGI (% of DB1127 at 10 uM)” value of the first is higher: -33.26% for the first, -59.06% for the second.

Going from COc1ccc(OC)c(C2C3=C(CC(C)(C)CC3=O)N(c3ccc(Cl)c(Cl)c3)C3=C2C(=O)CC(C)(C)C3)c1 [MMV007208] to COc1ccc(C2C(C(=O)Nc3cccc(OC)c3)c3ccccc3C(=O)N2C2CCCCC2)cc1 (stereo not shown) [MMV008455], the “PGI (% of DB1127 at 10 uM)” value rises from -12.95% to -12.94%.

First: CCOc1cc(Cl)c(C(C)NC(=O)c2ccccc2)cc1OCC (stereo not shown) [MMV665800]
Second: CCOc1cc2c(cc1OCC)C(c1cc(Cl)c(O)c(OCC)c1)NCC2 (stereo not shown) [MMV000481]
The “PGI (% of DB1127 at 10 uM)” value of the first is lower: -123.29% for the first, -21.47% for the second.

Compared with Oc1c(C(Nc2ccccn2)c2cccc(Oc3ccccc3)c2)ccc2cccnc12 (stereo not shown) [MMV665814], Cc1cc(Nc2ccc(OCc3ccccc3)cc2)nc2cc(O)ccc12 [MMV007181] is higher in “PGI (% of DB1127 at 10 uM)” value: -6.04% for the first, 115.72% for the second.

First: Cc1ccc2cc3c(N)c4c(C)ccc(C)c4nc3nc2c1 [MMV666079]
Second: Cc1cccc(-n2ncc3c(O)nc(-n4nc(C)cc4NC(=O)c4cc5ccccc5o4)nc32)c1 [MMV403679]
The “PGI (% of DB1127 at 10 uM)” value of the first is lower: -43.85% for the first, -25.18% for the second.

Compared with Cc1ccc(Cn2c(N3CCC(C(=O)NCc4cccs4)CC3)nc3ccccc32)cc1 [MMV007564], Cc1c(C)n(Cc2ccc(F)cc2)c2ccc(C(=O)NCc3ccco3)cc12 [MMV008149] is higher in “PGI (% of DB1127 at 10 uM)” value: -118.82% for the first, -33.19% for the second.

First: CCOC(=O)c1cnc2ccc(OC)cc2c1NCc1ccccc1 [MMV665813]
Second: COc1cccc(Nc2nc(N)c3ccccc3n2)c1.Cl [MMV019199]
The “PGI (% of DB1127 at 10 uM)” value of the first is higher: -12.77% for the first, -26.29% for the second.

Going from COc1ccc(CNC(=O)c2cc3c(=O)n4ccccc4nc3n(CCc3ccccc3)c2=N)cc1 [MMV665881] to COc1ccc(C2c3ccc4ccccc4c3Oc3ncn(CCCN(C)C)c(=N)c32)cc1 (stereo not shown) [MMV667491], the “PGI (% of DB1127 at 10 uM)” value rises from 6.76% to 39.81%.

Compared with CCCCCCOC(=O)C1=C(C)NC(=O)NC1c1ccccc1F (stereo not shown) [MMV007686], CCCCOc1ccc(C(=O)Nc2cc(C)on2)cc1 [MMV007906] is higher in “PGI (% of DB1127 at 10 uM)” value: -24.58% for the first, -15.33% for the second.

Compared with COc1ccc(CCN2CCC(CN(C)Cc3cnn(-c4ccccc4)c3)CC2)cc1 [MMV666069], O=c1cc(NC2CCN(CCCc3ccccc3)CC2)c2cc(Cl)ccc2o1 [MMV665786] is higher in “PGI (% of DB1127 at 10 uM)” value: -33.62% for the first, -0.88% for the second.

Going from O=C(Nc1ccc(-c2nc3cc4ccccc4cc3[nH]2)cc1)c1cccc(Br)c1 [MMV019241] to Nc1ccc(-c2nc3cc(Cc4ccc5[nH]c(-c6ccc(N)cc6)nc5c4)ccc3[nH]2)cc1 [MMV665943], the “PGI (% of DB1127 at 10 uM)” value rises from -30.92% to 9.49%.

First: O=C(Nc1ccccc1O)c1ccc(-c2ccc(Cl)cc2Cl)o1 [MMV665948]
Second: CC(NCc1ccccc1)c1cc(Cl)ccc1O (stereo not shown) [MMV665789]
The “PGI (% of DB1127 at 10 uM)” value of the first is lower: -40.46% for the first, -38.95% for the second.

First: Cc1cc(NC(=O)c2ccc(-c3ccccc3)cc2)no1 [MMV018984]
Second: COc1ccc(-c2cc3c(nn2)-c2ccccc2C3=O)cc1 [MMV666026]
The “PGI (% of DB1127 at 10 uM)” value of the first is higher: 6.32% for the first, -10.04% for the second.

Going from COc1ccc2c(=O)cc(C(Cl)(Cl)Cl)oc2c1 [MMV665820] to CCOc1ccc2nc(C)cc(Nc3ccc(Br)cc3)c2c1 [MMV006522], the “PGI (% of DB1127 at 10 uM)” value rises from -22.08% to 30.79%.

Going from Clc1ccc2c(N3CCCC3)ccnc2c1 [MMV007363] to Oc1c(CN2CCN(c3ccccc3F)CC2)cc(Br)c2cccnc12 [MMV000760], the “PGI (% of DB1127 at 10 uM)” value rises from -15.91% to -8.56%.

Compared with OC(Cn1nnc2ccccc21)Cn1c2ccc(Br)cc2c2cc(Br)ccc21 (stereo not shown) [MMV666025], O=c1nc(C=Cc2ccc(Br)cc2)oc2ccccc12 [MMV666599] is higher in “PGI (% of DB1127 at 10 uM)” value: 1.46% for the first, 22.37% for the second.

Going from Cl.Clc1cc(Br)ccc1-c1ccc(CNCC2CCNCC2)o1 [MMV019918] to O=C(NCc1ccco1)C1CCN(S(=O)(=O)c2ccc(Br)cc2)CC1 [MMV007430], the “PGI (% of DB1127 at 10 uM)” value rises from -10.89% to -0.53%.

First: Cc1cc(Nc2ccc3ccccc3c2)n2ncnc2n1 [MMV011099]
Second: Cc1cc(Nc2ccc(Cl)cc2)n2nc(C(F)(F)F)nc2n1 [MMV011256]
The “PGI (% of DB1127 at 10 uM)” value of the first is lower: -50.58% for the first, -32.20% for the second.

Going from CCN1CCN(c2c(C(=O)c3ccccc3)cnc3cc(OC)c(OC)cc23)CC1 [MMV008474] to COc1ccccc1N1CCN(C(CNS(=O)(=O)c2ccc(Cl)cc2)c2cccnc2)CC1 (stereo not shown) [MMV665914], the “PGI (% of DB1127 at 10 uM)” value rises from -15.22% to 1.92%.

First: COc1ccc2c(c1OC)C(=O)N1c3ccccc3N=C(c3ccc(C)cc3)CC21 (stereo not shown) [MMV000917]
Second: Cc1ccc(Nc2nc(-c3ccccn3)cs2)cc1 [MMV007907]
The “PGI (% of DB1127 at 10 uM)” value of the first is higher: -0.60% for the first, -25.32% for the second.

First: Fc1ccc2[nH]c3c(NCCCN4CCOCC4)ncnc3c2c1 [MMV019871]
Second: CCN(CC)CCNc1ncnc2c1[nH]c1ccc(Cl)cc12 [MMV396703]
The “PGI (% of DB1127 at 10 uM)” value of the first is higher: -31.05% for the first, -47.33% for the second.

Going from O=C(NC1CCN(Cc2ccccc2)CC1)c1cc(-c2cccnc2)nc2ccc(Cl)cc12 [MMV020490] to O=C(NC1CCN(Cc2ccccc2)CC1)c1cc(C(=O)NC2CCN(Cc3ccccc3)CC2)cc(C(=O)NC2CCN(Cc3ccccc3)CC2)c1 [MMV019881], the “PGI (% of DB1127 at 10 uM)” value rises from -15.64% to 9.54%.

First: CCCc1c(C)nc2ccc(Br)cc2c1O [MMV666095]
Second: Cc1nc2ccccc2c(O)c1CC=C(Cl)Cl [MMV665994]
The “PGI (% of DB1127 at 10 uM)” value of the first is lower: -30.45% for the first, 45.96% for the second.

Going from CC(=O)c1ccc(NC(=O)CSc2nc(-c3ccccc3Cl)ns2)cc1 [MMV666124] to Cc1cc(C)c2c(c1)OCN(Cc1ccccc1Cl)C2 [MMV006558], the “PGI (% of DB1127 at 10 uM)” value falls from -5.85% to -21.27%.

First: CCOc1ccccc1NC(=O)CN1CCN(C(=O)c2ccco2)CC1 [MMV007791]
Second: O=C(NCc1ccco1)C1CCN(S(=O)(=O)c2ccc(Cl)cc2)CC1 [MMV006188]
The “PGI (% of DB1127 at 10 uM)” value of the first is lower: -28.95% for the first, -16.08% for the second.

Going from Cc1cc(NCCN2CCCCC2)c2ccc3ccccc3c2n1 [MMV006203] to CN1CCN(c2c3c(c(C#N)c4nc5ccccc5n24)CCC3)CC1 [MMV008127], the “PGI (% of DB1127 at 10 uM)” value rises from -66.37% to -35.30%.

First: CC(=O)Nc1nnc(SCc2c(C)cc(C(C)(C)C)cc2C)s1 [MMV020700]
Second: CN(C)c1ccc(N2C(N)=NC(N)=NC2(C)C)cc1 [MMV667487]
The “PGI (% of DB1127 at 10 uM)” value of the first is higher: 1.07% for the first, -14.53% for the second.

In the case of CCC(C)NCC(O)(c1ccc(Cl)cc1)c1ccc(Cl)cc1 (stereo not shown) [MMV665928], the “PGI (% of DB1127 at 10 uM)” value is reported as -109.93%.
